Measurements from patent US20020123077A1, “Novel compounds capable of modulating biofilms” (priority 2000, published 2002).

Test system: P. aeruginosa PA14
Assay: Potentiation of gentamycin on pre-formed biofilm
Format: cell-based, Pseudomonas aeruginosa
Conditions: 9 hr biofilm, M63 + arginine; BIF ~1 μM, Gm 0.1 mg/ml; 14 hours of incubation
Description: FIG. 10 is a bar graph showing the ability of purified BIF to potentiate the activity of gentamycin (Gm). A biofilm of P. aeruginosa PA14 was pre-formed by growing the bacteria for 9 hrs in minimal M63 medium supplemented with arginine (0.4%) in 96 well dishes (100 μl of medium per well). After 9 hrs, half of the media was removed and replaced with fresh medium containing Gm (0.1 mg/ml final concentration), BIF (˜1 μM final concentration), or both compounds. The biofilm was quantitated after an additional 14 hrs of incubation.
We predicted that addition of purified BIF might potentiate the effects of antimicrobial compounds. To test this hypothesis, we pre-formed a biofilm of P. aeruginosa by growing the bacteria for 9 hrs by growth in minimal M63 medium supplemented with arginine (0.4%) in 96 well dishes. The preformed biofilms were then treated with BIF alone or BIF plus gentamycin (Gm) at 0.1 mg/ml final concentration. At the concentrations tested, BIF (˜1 μM) and Gm (0.1 mg/ml) had no effect on pre-formed biofilms of P. aeruginosa when these compounds were used individually (FIG. 10).

Substance: gentamycin [Gm]
- effect on pre-formed biofilms of P. aeruginosa: no effect
